Experiments:
[1] = tested on: WILLMS SOYBEANS; experiment: Test D; type: in vivo, Glycine max
[2] = tested on: GREEN FOXTAIL; experiment: Test D; type: in vivo, Setaria viridis
[3] = tested on: FALL PANICUM; experiment: Test D; type: in vivo, Panicum dichotomiflorum
[4] = tested on: G522 SORGHUM; experiment: Test D; type: in vivo, Sorghum bicolor
[5] = tested on: VELVETLEAF; experiment: Test D; type: in vivo, Abutilon theophrasti
Method: (§1) The Corn and Sorghum Herbicide Test included the following species in both the preemergence and postemergence evaluations:
(§2) Postemergence plantings were grown in Sassafras sandy loam soil. Corn and soybeans were grown in separate 25 cm diameter containers. Sorghum and the seven grass weed species were grown in two 18 cm diameter containers, 4 species per container. The seven broadleaf weed species were also grown in two 18 cm diameter containers, 4 species in one container, 3 species in the second container. One additional planting of corn in an 18 cm diameter container was made. The soil surface of this additional container of corn was covered with the absorbent, perlite, before spray treatment so that test chemicals would enter the plant only via the foliage. The plants were grown 10-21 days, dependent upon the species and then sprayed postemergence with the test chemicals dissolved in a nonpytotoxic solvent.
(§3) Preemergence plantings were grown in fertilized Tama silt loam soil. These plantings are identical to those described in the postemergence section, with the exception of the corn planting having perlite covering the soil surface. These plantings were made the day of or the day before spraying the test chemicals dissolved in a nonphytotoxic solvent.
(§4) Treated plants and controls were maintained in the greenhouse for 2 to 4 weeks. Visual planting response ratings were made on a percentage scale of 0 to 100 in comparison with a control where 0=no injury, and 100=death.

[6] = tested on: LADY SMARTWEED; experiment: Test D; type: in vivo, Polygonum persicaris
Method: as §1, §2, §3, §4

[7] = tested on: IVY MORNINGLORY; experiment: Test D; type: in vivo, Ipomoea hederacea
[8] = tested on: PERLITE CORN; experiment: Test D, soil covered with perlite; type: in vivo, Zea mays
Method: as §1, §2, §4

Measured: plant response

C=C(c1ccccc1Cl)C(O)(Cn1cncn1)c1ccc(Cl)cc1Cl (centres unmarked) [Example 33, 2-(2,4-Dichlorophenyl)-3-(2-chlorophenyl)-1-(1H-1,2,4-triazol-1-yl)-3-buten-2-ol]
0%: [1]; POSTEMERGENCE 0250 GM/HA | [1]; POSTEMERGENCE 0500 GM/HA | [1]; POSTEMERGENCE 1000 GM/HA | [1]; PREEMERGENCE 0250 GM/HA | [1]; PREEMERGENCE 0500 GM/HA | [1]; PREEMERGENCE 1000 GM/HA | [2]; POSTEMERGENCE 0250 GM/HA | [2]; POSTEMERGENCE 0500 GM/HA | [2]; POSTEMERGENCE 1000 GM/HA | [2]; PREEMERGENCE 0250 GM/HA | [2]; PREEMERGENCE 0500 GM/HA | [2]; PREEMERGENCE 1000 GM/HA | [3]; POSTEMERGENCE 0250 GM/HA | [3]; POSTEMERGENCE 0500 GM/HA | [3]; POSTEMERGENCE 1000 GM/HA | [3]; PREEMERGENCE 0250 GM/HA | [3]; PREEMERGENCE 0500 GM/HA | [3]; PREEMERGENCE 1000 GM/HA | [4]; POSTEMERGENCE 0250 GM/HA | [4]; POSTEMERGENCE 0500 GM/HA | [4]; POSTEMERGENCE 1000 GM/HA | [4]; PREEMERGENCE 0250 GM/HA | [4]; PREEMERGENCE 0500 GM/HA | [4]; PREEMERGENCE 1000 GM/HA | [5]; POSTEMERGENCE 0250 GM/HA | [5]; POSTEMERGENCE 0500 GM/HA | [5]; POSTEMERGENCE 1000 GM/HA | [5]; PREEMERGENCE 0250 GM/HA | [5]; PREEMERGENCE 0500 GM/HA | [5]; PREEMERGENCE 1000 GM/HA | [6]; POSTEMERGENCE 0250 GM/HA | [6]; POSTEMERGENCE 0500 GM/HA | [6]; POSTEMERGENCE 1000 GM/HA | [6]; PREEMERGENCE 0250 GM/HA | [6]; PREEMERGENCE 0500 GM/HA | [6]; PREEMERGENCE 1000 GM/HA | [7]; POSTEMERGENCE 0250 GM/HA | [7]; POSTEMERGENCE 0500 GM/HA | [7]; POSTEMERGENCE 1000 GM/HA | [7]; PREEMERGENCE 0250 GM/HA | [7]; PREEMERGENCE 0500 GM/HA | [7]; PREEMERGENCE 1000 GM/HA | [8]; POSTEMERGENCE 0250 GM/HA | [8]; POSTEMERGENCE 0500 GM/HA | [8]; POSTEMERGENCE 1000 GM/HA

C=C(c1ccccc1Cl)C(O)(Cn1cncn1)c1ccc(F)cc1F (centres unmarked) [Example 35]
30%: [1]; POSTEMERGENCE 0500 GM/HA | [2]; PREEMERGENCE 0064 GM/HA | [6]; PREEMERGENCE 0125 GM/HA | [7]; POSTEMERGENCE 0500 GM/HA | [7]; PREEMERGENCE 0500 GM/HA
10%: [1]; POSTEMERGENCE 0250 GM/HA
90%: [5]; POSTEMERGENCE 0500 GM/HA
50%: [3]; PREEMERGENCE 0125 GM/HA | [4]; POSTEMERGENCE 0500 GM/HA | [6]; POSTEMERGENCE 0250 GM/HA | [6]; POSTEMERGENCE 0500 GM/HA | [6]; PREEMERGENCE 0250 GM/HA
70%: [2]; PREEMERGENCE 0125 GM/HA | [5]; PREEMERGENCE 0125 GM/HA
100%: [2]; PREEMERGENCE 0500 GM/HA | [3]; PREEMERGENCE 0500 GM/HA | [5]; PREEMERGENCE 0250 GM/HA | [5]; PREEMERGENCE 0500 GM/HA | [6]; PREEMERGENCE 0500 GM/HA
40%: [2]; POSTEMERGENCE 0500 GM/HA
80%: [2]; PREEMERGENCE 0250 GM/HA | [3]; PREEMERGENCE 0250 GM/HA
60%: [5]; POSTEMERGENCE 0250 GM/HA | [5]; PREEMERGENCE 0064 GM/HA
0%: [1]; PREEMERGENCE 0064 GM/HA | [1]; PREEMERGENCE 0125 GM/HA | [1]; PREEMERGENCE 0250 GM/HA | [1]; PREEMERGENCE 0500 GM/HA | [2]; POSTEMERGENCE 0250 GM/HA | [3]; PREEMERGENCE 0064 GM/HA | [4]; POSTEMERGENCE 0250 GM/HA | [4]; PREEMERGENCE 0064 GM/HA | [4]; PREEMERGENCE 0125 GM/HA | [4]; PREEMERGENCE 0250 GM/HA | [4]; PREEMERGENCE 0500 GM/HA | [6]; PREEMERGENCE 0064 GM/HA | [7]; PREEMERGENCE 0064 GM/HA | [7]; PREEMERGENCE 0125 GM/HA | [7]; PREEMERGENCE 0250 GM/HA | [8]; POSTEMERGENCE 0250 GM/HA | [8]; POSTEMERGENCE 0500 GM/HA
20%: [7]; POSTEMERGENCE 0250 GM/HA

C=C(c1ccccc1)C(O)(Cn1cncn1)c1ccc(Cl)cc1Cl (centres unmarked) [Example 50, 2-(2,4-Dichlorophenyl)-3-phenyl-1-(1H-1,2,4-triazol-1-yl)-3-buten-2-ol]
30%: [2]; PREEMERGENCE 0125 GM/HA | [6]; POSTEMERGENCE 0250 GM/HA | [7]; PREEMERGENCE 0125 GM/HA
60%: [3]; PREEMERGENCE 0250 GM/HA | [7]; POSTEMERGENCE 0500 GM/HA
85%: [2]; PREEMERGENCE 0500 GM/HA
20%: [1]; PREEMERGENCE 0500 GM/HA | [3]; POSTEMERGENCE 0250 GM/HA | [3]; PREEMERGENCE 0064 GM/HA | [6]; PREEMERGENCE 0250 GM/HA | [7]; POSTEMERGENCE 0250 GM/HA
25%: [5]; POSTEMERGENCE 0500 GM/HA | [5]; PREEMERGENCE 0125 GM/HA
35%: [1]; POSTEMERGENCE 0250 GM/HA | [3]; POSTEMERGENCE 0500 GM/HA | [3]; PREEMERGENCE 0125 GM/HA
40%: [5]; PREEMERGENCE 0250 GM/HA | [6]; POSTEMERGENCE 0500 GM/HA | [6]; PREEMERGENCE 0500 GM/HA | [7]; PREEMERGENCE 0250 GM/HA
65%: [1]; POSTEMERGENCE 0500 GM/HA | [5]; PREEMERGENCE 0500 GM/HA | [7]; PREEMERGENCE 0500 GM/HA
0%: [1]; PREEMERGENCE 0064 GM/HA | [1]; PREEMERGENCE 0125 GM/HA | [1]; PREEMERGENCE 0250 GM/HA | [2]; POSTEMERGENCE 0250 GM/HA | [2]; POSTEMERGENCE 0500 GM/HA | [2]; PREEMERGENCE 0064 GM/HA | [4]; POSTEMERGENCE 0250 GM/HA | [4]; POSTEMERGENCE 0500 GM/HA | [4]; PREEMERGENCE 0064 GM/HA | [4]; PREEMERGENCE 0125 GM/HA | [4]; PREEMERGENCE 0250 GM/HA | [4]; PREEMERGENCE 0500 GM/HA | [5]; POSTEMERGENCE 0250 GM/HA | [5]; PREEMERGENCE 0064 GM/HA | [6]; PREEMERGENCE 0064 GM/HA | [6]; PREEMERGENCE 0125 GM/HA | [7]; PREEMERGENCE 0064 GM/HA | [8]; POSTEMERGENCE 0250 GM/HA | [8]; POSTEMERGENCE 0500 GM/HA
50%: [2]; PREEMERGENCE 0250 GM/HA
95%: [3]; PREEMERGENCE 0500 GM/HA

Reference: US4965280A, “Antifungal carbinols” (E. I. Du Pont de Nemours and Company, priority 1989, dated 1990)
